Source: patent US5446152A, “Heterocyclic compounds active in gastro-intestinal pathologies” (priority 1993, dated 1995)
Counter-ions that a name gives are not always drawn. Like-named read-outs stand apart in the source and are kept apart here. Blank lines part the entries; values can stand above or below the molecule they belong to.

Assays:
gastric dumping = test: Test of gastric dumping in the rat; assay type: in vivo; conditions: for Increase % of the gastric dumping with respect to the controls: 30' before, measured 20' after the coloured meal, * = p<0.05
Experimental: (§1) In tables 5, 6, 7 and 8 the significance was determined by means of Student's test on absolute values with respect to the relative controls using 10 animals per group in tests 5, 6 and 7.
Within the gastro-duodenal tract, the prokinetic activity was evaluated by means of the test of gastric dumping in the rat, according to the method reported by Scarpignato C. in J. Pharmacol. 14, 261, 1983.

[1] = test system: acetylcholine on the rat ascending colon; test: Influence on the acetylcholine activity on the rat ascending colon; parameters: species or system Wistar rat; conditions: isolated rat ascending colon
Experimental: (§2) In vitro tests were carried out to evaluate the effect of the compounds of formula I and some of their pharmacologically acceptable salts on physiological peristalsis, on the action of the histamine, serotonine and acetylcholine.
Finally the effect on the acetylcholine was evaluated on the ascending colon of a rat, according to the method of Gaddum J. H. and Horton E. W. reported in Br. J. Pharmacol. Chemother. 14, 117, 1959.
The effect of the products on the contracturing action of the acetylcholine was studied on the isolated ascending colon of rat, taken from Wistar rat sacrificed after 24 hours fasting, washed with De Jalon fluid at 27° C. and perfused with the same oxygenated fluid (95% oxygen and 5% carbon dioxide) at the temperature of 27° C. In this case too the cumulative dose-response curves were recorded in the presence of increasing concentrations of the products being studied.

rabbit jejunum = test: Spontaneous peristaltic activity on rabbit jejunum; conditions: for Emax / EC50 / EC (maximum effect): Oryctolagus cuniculus; for Emax: read-out: maximum effect % (max. increase of extent of the contractions); for EC50: read-out: CE50 (concentration able to produce 50% of the maximum effect); for EC (maximum effect): read-out: concentration required to obtain the maximum effect
Experimental: as §2
The action on physiological peristalsis was evaluated on an isolated rabbit jejunum preparation, according to the method reported by Magnus J. in Pfluegers Arch. Gen. Physiol.
The rabbit jejunum was used to evaluate the extent of the spontaneous peristaltic contractions in the presence and in the absence of the derivatives being studied.

[2] = Study of acute toxicity (LD50); assay type: in vivo; conditions: rat, in vivo, iv; Sprague-Dawley rats of both sexes, observation period of 14 days
Experimental: (§3) The acute toxicity (LD50)of the derivatives described in this invention was evaluated according to the method reported by Lietchfield J. T. and Wilcoxon F. in J. Pharmacol. Exp. Ther. 96, 99, 1949, on Sprague-Dawley rats of both sexes, over an observation period of 14 days from the day of treatment.

[3] = test system: histamine on guinea-pig ileum; test: Influence on the activity of histamine on guinea-pig ileum; conditions: isolated guinea-pig ileum
Experimental: In vitro tests were carried out to evaluate the effect of the compounds of formula I and some of their pharmacologically acceptable salts on physiological peristalsis, on the action of the histamine, serotonine and acetylcholine. The effect on the histamine was evaluated on a preparation of guinea-pig ileum according to the method described by the above-mentioned authors. […] The rabbit jejunum was used to evaluate the extent of the spontaneous peristaltic contractions in the presence and in the absence of the derivatives being studied. On the guinea-pig ileum the cumulative dose-response curve to histamine were recorded in the presence of increasing concentrations of the products being examined.

intestinal transit = test: Intestinal transit of an opaque meal in the mouse (prokinetic action); assay type: in vivo, Swiss albino mice; conditions: for % of intestine (from pylorus to anus) travelled by the opaque meal / change in vivo at 0.0098 mg/kg: 9.8 μg/Kg p.o.; for % of intestine (from pylorus to anus) travelled by the opaque meal / change in vivo at 0.0098 mg/kg / ED50: 15' before the opaque meal; for change in vivo at 0.0098 mg/kg: Mus musculus, read-out: variation in % with respect to the controls; for change in vivo at 0.0098 mg/kg / ED50: po; for change in vivo at 0.0098 mg/kg / Variation % with respect to the controls: * = p<0.05; for Variation % with respect to the controls / ED50: mouse; for Variation % with respect to the controls: dose five times greater than ED50; for ED50: read-out: DE50 (the source's name)
Experimental: as §1
The prokinetic action was evaluated in vivo on Swiss albino mice determining the influence of the products on the intestinal transit of an opaque meal, according to the method described by Macht D. I. and Barba-Gose J. in J. Amer. Pharm. Ass. 20, 558, 1931 and later by Witkin L. B. et al. in J. Pharmacol. Exp. Ther. […]
The method involved the administration of an opaque meal to the mice after a 24 hour fast, through gastric probe, 15 minutes after the administration of the product.
After sacrificing the animals 20 minutes after the administration of the opaque meal, the percentage of the length of the intestine travelled by the opaque meal was calculated.

[4] = test system: emesis induced with cisplatin; test: Test of vomit from cisplatin in the pigeon (antiemetic activity); assay type: in vivo; conditions: one hour before cisplatin 7.5 mg/kg; for Acts of vomit (average/anim.) / Animals that vomit % / Latency of 1st act of vomit: * = p<0.05
Experimental: as §1
Finally the antiemetic activity was evaluated in the pigeon after induction of emesis with cisplatin, according to the method of Preziosi P. et al. in Eur. J. Pharmacol. 221, 343, 1992.

[5] = test system: serotonine on the fornix of the rat stomach; test: Influence on the serotonine activity on the fornix of the rat stomach; parameters: species or system Wistar rat
Experimental: as §2
The effect on the serotonine was evaluated on the fornix of the stomach of a rat according to the method of Vane J. R. in Br. J. Pharmacol. Cheroother. 12, 344, 1957.
The action on the serotonine was evaluated on the fornix of the stomach of rat, also taken from Wistar rat sacrificed after 24 hours fasting, following the technique reported by Vane J. R. in Br. J. Pharmacol. Chemoter. 12, 344, 1957, as previously described.

behaviour = test: Irwin's test (effects as regards behaviour); assay type: in vivo; conditions: rats, 20 mg/Kg i.p.
Text: Finally, preliminary studies on the effects as regards behaviour have been performed by means of Irwin's test, according to the method reported by Irwin S. in Gordon Res. Conf. on Medicinal Chem. 1959, 133, 1959, modified in that rats were used instead of mice.

Sprague-Dawley rats = test: Study of acute toxicity (LD50); assay type: in vivo; conditions: Sprague-Dawley rats of both sexes, i.v., observation period of 14 days; 20160 min
Experimental: as §3

cholinesterase = conditions: cited from earlier work
[6] = test system: gastro-intestinal motility; conditions: cited from earlier work
[7] = test system: dopaminergic receptors D2; conditions: cited from earlier work
[8] = isolated rabbit jejunum, spontaneous peristaltic contractions

SMILES: CCN(CC)CCN1CNc2ccc(Cl)cc2C1=O.O=C(O)C(=O)O [Example 1, 6-Chloro-3-[2-(diethylamino)ethyl]-2,3-dihydro-4(1H)-quinazolinone oxalate]
- Increase % of the gastric dumping with respect to the controls (gastric dumping; 12.5 μg/kg): 27.6%
- Increase % of the gastric dumping with respect to the controls (gastric dumping; 50.0 μg/kg): 81.0%
- Increase % of the gastric dumping with respect to the controls (gastric dumping; 100.0 μg/kg): 40.0%
- Increase % of the gastric dumping with respect to the controls (gastric dumping; 200.0 μg/kg): 45.7%
- Increase % of the gastric dumping with respect to the controls (gastric dumping; 400.0 μg/kg): 34.0%
- level of activity on the gastric dumping (gastric dumping; rat, text statement on table 7): high level of activity on the gastric dumping
- active concentration (acetylcholine) [1]: 100 µM
- Emax (rabbit jejunum; [8]): 75%
- EC50 (rabbit jejunum; isolated rabbit jejunum): 3000 nM
- EC (maximum effect) (rabbit jejunum; isolated rabbit jejunum): 10 µM
- effect on the spontaneous peristalsis in comparison with cisapride (rabbit jejunum; rabbit jejunum, examples 1 and 2 at greater concentrations than the reference, example 6 at identical concentrations): greater than that of cisapride
- LD50 at 336 h [2]: 100 mg/kg
- active concentration (histamine) [3]: 100 µM
- % of intestine (from pylorus to anus) travelled by the opaque meal (intestinal transit): 52.0%
- change in vivo at 0.0098 mg/kg (intestinal transit): 34.4%
- Variation % with respect to the controls (intestinal transit): 33.7%
- ED50 (intestinal transit): 0.0098 mg/kg
- Variation % of the time of latency with respect to the controls ([4]; 50.0 μg/kg i.m.): -8.3%
- Acts of vomit (average/anim.) ([4]; 50.0 μg/kg i.m.): 5.0 average/anim.
- Animals that vomit % ([4]; 50.0 μg/kg i.m.): 100.0%
- Latency of 1st act of vomit ([4]; 50.0 μg/kg i.m.): 77.5 min
- Variation % of the time of latency with respect to the controls ([4]; 100.0 μg/kg i.m.): +14.7%
- Acts of vomit (average/anim.) ([4]; 100.0 μg/kg i.m.): 4.0 average/anim.
- Animals that vomit % ([4]; 100.0 μg/kg i.m.): 100.0%
- Latency of 1st act of vomit ([4]; 100.0 μg/kg i.m.): 97.0 min
- active concentration (serotonine) [5]: 10 µM
- effect on the serotonine activity ([5]; oxalate): increase the effect of the serotonine

- EC50 (rabbit jejunum; isolated rabbit jejunum): 10 nM
SMILES: CCN(CC)CCCN1CNc2ccc(Cl)cc2C1=O [Example 3, 6-Chloro-3-3-(diethylamino)propyl-2,3-dihydro-4(1H)-quinazolinone oxalate]
- Emax (rabbit jejunum; [8]): 25%
- EC (maximum effect) (rabbit jejunum; isolated rabbit jejunum): 1 µM
- % of intestine (from pylorus to anus) travelled by the opaque meal (intestinal transit): 45.0%
- change in vivo at 0.0098 mg/kg (intestinal transit): 11.1%
- Variation % with respect to the controls (intestinal transit): 6.4%
- effect on the serotonine activity [5]: act as competitive antagonists
- variations with respect to the controls in behavioural parameters (Irwin's test) (behaviour): no significant variations with respect to the controls

SMILES: CCN(CC)CCN1CN(C)c2ccc(Cl)cc2C1=O [Example 11, 6-Chloro-3-[2-(diethylamino)ethyl]-2,3-dihydro-1-methyl-4(1H)-quinazolinonecitrate]
- LD50 (Sprague-Dawley rats): 80 mg/Kg/i.v.

SMILES: COc1cc(N)c(Cl)cc1C(=O)NC1CCN(CCCOc2ccc(F)cc2)CC1OC (centres unmarked) [cisapride, reference compound]
- Emax (rabbit jejunum): 40%
- EC50 (rabbit jejunum; isolated rabbit jejunum): 20 nM
- LD50 at 336 h [2]: 35 mg/kg
- cholinesterase inhibition (cholinesterase): practically no
- ED50 (intestinal transit): 0.019 mg/kg

SMILES: COc1cc(N)c(Cl)cc1C(=O)NC1CCN(Cc2ccccc2)CC1 [clebopride]
- gastro-intestinal motility / prokinetic activity [6]: having prokinetic activity
- activity on the dopaminergic receptors D2 [7]: a fair amount of activity on the dopaminergic receptors D2

SMILES: CCN1CC(NC(=O)c2cc(Cl)c(N)cc2OC)CN1CC [dazopride]
- gastro-intestinal motility / prokinetic activity [6]: having prokinetic activity
- activity on the dopaminergic receptors D2 [7]: a fair amount of activity on the dopaminergic receptors D2

SMILES: CCN(CC)CCNC(=O)c1cc(Cl)c(N)cc1OC [metoclopramide]
- gastro-intestinal motility / prokinetic activity [6]: stimulates the motility of the upper gastro-intestinal tract
- activity on the dopaminergic receptors D2 [7]: both central and peripheral antagonistic activity on the dopaminergic receptors D2
